In article PMC6254802, “Development of a High-Throughput Assay for Screening of γ-Secretase Inhibitor with Endogenous Human, Mouse or Drosophila γ-Secretase” (Molecules, 2009):
Where two headings read alike, the source gives them in different places.

Tests used:
γ-secretase (Aβ) = settings: In vivo γ-secretase assay; read-out: Reported IC50 (Aβ); cited from earlier work
mouse γ-secretase = assay: Fluorogenic substrate assay with mouse γ-secretase from mouse cortex membrane; assay type: biochemical; settings: mean ± SEM, n = 3
Method: All procedures were carried out at 4 °C. HEK 293T or S2 cells were washed with ice-cold PBS by centrifugation at 500 g for 5 min and the pellets were homogenized with a Dounce homogenizer (pestle B, 15 strokes) in lysis buffer contained 5 mM Tris-HCl (pH 7.4), 5 mM EDTA, 5 mM EGTA and Complete^TM protease inhibitor cocktail. Mouse cortex was homogenized with 15 stokes of pestle A in the same lysis buffer. The homogenates were centrifuged at 800 g for 10 min to remove nuclei and large debris. The supernatants were centrifuged at 25,000 g for 1 h at 4 °C and the membrane pellets were resuspended in reaction buffer containing 50 mM Tris-HCl (pH 6.8), 2 mM EDTA, 150 mM KCl and Complete^TM protease inhibitor cocktail. After measuring the protein concentration, the membranes were diluted to 1 mg/ml in 50 mM Tris-HCl, pH 6.8, 2 mM EDTA, 150 mM KCl, 0.25% CHAPSO.
For assay optimization, aliquots of membrane protein (5~30 μg) was added to each well of a 96-well plate with various concentrations of fluorogenic substrate (4~8 μM). Different concentrations of compounds were added and the final reaction system was adjusted to 100 μL/well with the reaction buffer. The plate was incubated at 37 °C in a humidified atmosphere for indicated time periods. Fluorescence was measured using a BIOTEK FLX800 microplate reader with the excitation wavelength at 355 nm and the emission wavelength at 440 nm. The activity of γ-secretase was presented as the relative fluorescent unit (RFU). For compound screening, 1 μM of L685,458 was used as a positive control, and 1% DMSO was used as negative control. The inhibition rate of each compound was calculated with the following equation: InhibitionCompound % = (Average Value1%DMSO-Average Value Compound)/(Average Value1%DMSO-Average ValueL685,458) × 100%. So the inhibition rate of 1 μM L685,458 is 100% and that of 1% DMSO is 0. The samples showing more than 60% inhibition were considered as “hits” in the screening.
(§1) Data were analyzed with GraphPad Prism software (GraphPad, San Diego, CA, USA). Non-linear regression analyses were performed to generate dose-response curves and calculate IC50 values, and linear regression was used to analyze data reproducibility. Mean ± SEM was calculated automatically with this software. Z’ factor was calculated by the following equation: Z’ = 1 - (3SD++3SD-) / │Ave+ - Ave-│ in which SD+ is the standard deviation of positive control, SD-is the standard deviation of negative control, Ave+ is the mean value of the positive control, and Ave-is the mean value of the negative control.

human γ-secretase = target: T1, human γ-secretase (Homo sapiens, UniProt P49768); assay: Fluorogenic substrate assay with endogenous human γ-secretase from HEK293T cell membrane; assay type: biochemical; settings: for IC50: 10 μg membrane protein, 6 μM substrate, 5 h, 37 °C, mean ± SEM; for maximal inhibition: human γ-secretase, relative to 1 μM L685,458 = 100%
T1 construct: endogenously expressing human γ-secretase from HEK293T cell membrane; endogenous in cells; host or cells: HEK293T cells (membrane fraction, solubilised with 0.25% CHAPSO)
Method: All procedures were carried out at 4 °C. […] Mouse cortex was homogenized with 15 stokes of pestle A in the same lysis buffer. The homogenates were centrifuged at 800 g for 10 min to remove nuclei and large debris. The supernatants were centrifuged at 25,000 g for 1 h at 4 °C and the membrane pellets were resuspended in reaction buffer containing 50 mM Tris-HCl (pH 6.8), 2 mM EDTA, 150 mM KCl and Complete^TM protease inhibitor cocktail.
For assay optimization, aliquots of membrane protein (5~30 μg) was added to each well of a 96-well plate with various concentrations of fluorogenic substrate (4~8 μM). Different concentrations of compounds were added and the final reaction system was adjusted to 100 μL/well with the reaction buffer. The plate was incubated at 37 °C in a humidified atmosphere for indicated time periods. Fluorescence was measured using a BIOTEK FLX800 microplate reader with the excitation wavelength at 355 nm and the emission wavelength at 440 nm. The activity of γ-secretase was presented as the relative fluorescent unit (RFU). For compound screening, 1 μM of L685,458 was used as a positive control, and 1% DMSO was used as negative control.
as §1

drosophila γ-secretase = target: T2, drosophila γ-secretase (Drosophila melanogaster, UniProt O02194); assay: Fluorogenic substrate assay with drosophila γ-secretase from S2 cell membrane; assay type: biochemical
T2 construct: membrane containing drosophila or mouse γ-secretase was isolated from S2 cells or mouse cortex, respectively; host or cells: Drosophila Schneider 2 (S2) cells, membrane fraction

γ-secretase (Aβ40, Aβ42) [1] = target: γ-secretase (Aβ40, Aβ42); parameters: method as in PMID 15341524; settings: Aβ ELISA assay, cited from earlier work
γ-secretase (Aβ40, Aβ42) [2] = target: γ-secretase (Aβ40, Aβ42); parameters: method as in PMID 11574530; settings: immunoblotting assay, cited from earlier work
γ-secretase [3] = target: γ-secretase; parameters: method as in PMID 16569643; settings: in vitro γ-secretase assay; read-out: Reported IC50; cited from earlier work
Sup-T1 NICT = system: Sup-T1 NICT; parameters: method as in PMID 15319485; settings: Sup-T1 NICT assay; read-out: Reported IC50; cited from earlier work
Aβ1-42 = system: Aβ1-42; parameters: method as in PMID 10882355; settings: read-out: Reported IC50 (Aβ1-42); cited from earlier work
γ-secretase [4] = target: γ-secretase; parameters: method as in PMID 10913280; settings: HTRF assay; read-out: Reported IC50; cited from earlier work
[5] = S2 cell membrane, mean ± SEM, n = 3, read-out: drosophila γ-secretase IC50

T2 sequence (O02194 whole entry): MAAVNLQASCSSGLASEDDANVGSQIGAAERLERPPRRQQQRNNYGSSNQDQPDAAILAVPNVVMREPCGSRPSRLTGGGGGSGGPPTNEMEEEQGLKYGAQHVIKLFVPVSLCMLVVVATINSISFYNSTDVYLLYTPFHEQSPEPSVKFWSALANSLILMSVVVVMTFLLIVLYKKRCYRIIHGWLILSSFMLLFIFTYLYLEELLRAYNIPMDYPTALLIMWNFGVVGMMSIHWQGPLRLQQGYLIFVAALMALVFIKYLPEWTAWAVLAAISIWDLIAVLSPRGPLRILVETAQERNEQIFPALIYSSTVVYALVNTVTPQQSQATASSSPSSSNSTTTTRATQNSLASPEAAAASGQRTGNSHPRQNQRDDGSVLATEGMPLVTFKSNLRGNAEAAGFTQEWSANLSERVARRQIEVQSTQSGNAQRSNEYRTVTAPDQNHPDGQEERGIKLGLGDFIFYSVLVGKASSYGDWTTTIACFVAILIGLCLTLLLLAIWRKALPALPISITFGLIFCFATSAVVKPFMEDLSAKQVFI
T2 sequence (Q9VC27 23-695 partner): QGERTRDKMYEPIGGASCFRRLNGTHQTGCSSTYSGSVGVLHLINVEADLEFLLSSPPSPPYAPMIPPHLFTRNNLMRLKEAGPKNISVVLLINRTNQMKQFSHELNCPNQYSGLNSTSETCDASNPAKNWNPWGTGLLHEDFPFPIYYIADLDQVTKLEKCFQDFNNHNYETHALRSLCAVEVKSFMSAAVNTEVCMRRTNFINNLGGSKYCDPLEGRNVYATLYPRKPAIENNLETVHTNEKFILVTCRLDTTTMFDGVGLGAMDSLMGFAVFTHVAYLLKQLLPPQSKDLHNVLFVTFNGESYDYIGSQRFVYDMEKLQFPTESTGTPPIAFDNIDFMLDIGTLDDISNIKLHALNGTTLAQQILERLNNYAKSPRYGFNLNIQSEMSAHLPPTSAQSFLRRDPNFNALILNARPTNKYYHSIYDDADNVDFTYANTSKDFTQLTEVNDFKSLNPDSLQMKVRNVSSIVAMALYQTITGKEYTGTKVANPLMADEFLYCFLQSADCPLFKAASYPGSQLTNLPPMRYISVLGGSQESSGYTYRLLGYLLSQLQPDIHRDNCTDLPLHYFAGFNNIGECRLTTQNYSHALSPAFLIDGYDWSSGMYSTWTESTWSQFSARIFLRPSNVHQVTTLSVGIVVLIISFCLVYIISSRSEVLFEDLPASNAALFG
T2 sequence (Q9VQG2 whole entry partner): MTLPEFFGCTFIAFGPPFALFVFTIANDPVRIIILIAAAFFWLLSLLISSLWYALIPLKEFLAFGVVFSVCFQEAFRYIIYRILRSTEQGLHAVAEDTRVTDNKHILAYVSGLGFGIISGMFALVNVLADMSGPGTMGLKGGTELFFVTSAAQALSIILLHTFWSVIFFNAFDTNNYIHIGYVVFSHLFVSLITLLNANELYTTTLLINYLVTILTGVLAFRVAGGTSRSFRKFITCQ
T2 sequence (Q86BE9 whole entry partner): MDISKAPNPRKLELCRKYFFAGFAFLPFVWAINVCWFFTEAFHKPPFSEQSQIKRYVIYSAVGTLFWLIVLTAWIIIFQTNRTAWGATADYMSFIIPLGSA

IC50 (mouse γ-secretase) [nM]	IC50 (human γ-secretase) [nM]	maximal inhibition (human γ-secretase) [%]	IC50 (drosophila γ-secretase; [5]) [nM]	Compound	IC50 (γ-secretase (Aβ)) [nM]	IC50 (γ-secretase (Aβ40, Aβ42) [1]; read-out: Reported IC50 (Aβ40)) [nM]	IC50 (γ-secretase (Aβ40, Aβ42) [1]; read-out: Reported IC50 (Aβ42)) [nM]	IC50 (γ-secretase (Aβ40, Aβ42) [2]; read-out: Reported IC50 (Aβ40)) [nM]	IC50 (γ-secretase (Aβ40, Aβ42) [2]; read-out: Reported IC50 (Aβ42)) [nM]	IC50 (drosophila γ-secretase) [nM]	IC50 (γ-secretase [3]) [nM]	IC50 (Sup-T1 NICT) [nM]	IC50 (Aβ1-42) [nM]	IC50 (γ-secretase [4]) [nM]
20.7 ± 5.24	53.5 ± 13.6	103.1	0.933 ± 0.169	COC(=O)[C@@H](NC(=O)[C@H](CC(C)C)NC(=O)N(Cc1ccccc1)C[C@@H](O)[C@H](Cc1ccccc1)NC(=O)OC(C)(C)C)C(C)C [31C]	300									
0.976 ± 0.147	4.43 ± 0.969		10.3 ± 1.66	CC(C)C[C@H](NC(=O)[C@H](Cc1ccccc1)C[C@@H](O)[C@H](Cc1ccccc1)NC(=O)OC(C)(C)C)C(=O)N[C@@H](Cc1ccccc1)C(N)=O [L685,458]				4	8		3			17

Second part, the molecule before the results:

Compound	IC50 (mouse γ-secretase) [nM]	IC50 (human γ-secretase) [nM]	maximal inhibition (human γ-secretase) [%]	IC50 (drosophila γ-secretase; [5]) [nM]	IC50 (γ-secretase (Aβ)) [nM]	IC50 (γ-secretase (Aβ40, Aβ42) [1]; read-out: Reported IC50 (Aβ40)) [nM]	IC50 (γ-secretase (Aβ40, Aβ42) [1]; read-out: Reported IC50 (Aβ42)) [nM]	IC50 (γ-secretase (Aβ40, Aβ42) [2]; read-out: Reported IC50 (Aβ40)) [nM]	IC50 (γ-secretase (Aβ40, Aβ42) [2]; read-out: Reported IC50 (Aβ42)) [nM]	IC50 (drosophila γ-secretase) [nM]	IC50 (γ-secretase [3]) [nM]	IC50 (Sup-T1 NICT) [nM]	IC50 (Aβ1-42) [nM]	IC50 (γ-secretase [4]) [nM]
C[C@H](NC(=O)Cc1cc(F)cc(F)c1)C(=O)N[C@H]1N=C(c2ccccc2)c2ccccc2N(C)C1=O [Compound E]	2.4 ± 0.605	53.9 ± 5.31	92.3			0.8	7	0.24	0.37	40.5 ± 7	7			
C[C@H](NC(=O)Cc1cc(F)cc(F)c1)C(=O)N[C@H](C(=O)OC(C)(C)C)c1ccccc1 [DAPT, N-[N-(3,5-difluorophenacetyl)-L-alanyl]-S-phenylglycine t-butyl ester]		3910 ± 551	69.7			1600	4000							
C[C@H](NC(=O)Cc1cc(F)cc(F)c1)C(=O)N[C@@H]1C(=O)N(C)c2ccccc2-c2ccccc21 [DBZ]	1.45 ± 0.435	12.5 ± 5.76	95.2	6.97 ± 1.98								1.7		
CC12CCC(C1)C(C)(C)C2NS(=O)(=O)c1ccc(F)cc1 (stereo not drawn) [Inhibitor VI]		44500 ± 25600	67.3										1800	
